Data published in US20170002313A1, “COMPOSITIONS AND METHODS OF OBTAINING AND USING ENDODERM AND HEPATOCYTE CELLS” (Genentech Inc., priority 2012, published 2017).

Key:
[1] = test system: human embryonic stem cells (hESC); assay: Endoderm differentiation of hESC with small-molecule inhibitors, flow cytometry of endoderm markers; format: cell-based; settings: Activin A + 750 nM inhibitor, no Wnt3a, 3-day treatment
Text: A variety of cell-type specific markers were used to monitor the differentiation of stem cells into endoderm cells in the flow cytometry, fluorescence imaging, and immunoassay experiments described below. To detect endoderm conversion, hESC-derived cell samples were stained for the expression of SOX17, FoxA2, and CXCR4 proteins. SOX17, FoxA2, and CXCR4 are proteins that are expressed by endoderm cells but not by stem cells. To detect stem cells, cell samples were stained for the expression of OCT4, a protein expressed by stem cells but not by endoderm cells.
Undifferentiated human embryonic stem cells (hES) were maintained at a density of 40,000 cells/cm^2 on qualified matrigel (BD, #354277) in TesR™2 medium ([…]™ Technologies #05860). Cultures were manually passaged twice a week. To prepare for endoderm differentiation, hESC cells were passaged into TesR™2 medium overnight. The following day, the TesR™2 medium was replaced with basal medium (DMEM/F12+Glutamax (Invitrogen, #10565) supplemented with B27 (Invitrogen, #17504-044)). No human embryos were destroyed in the process of obtaining stem cells for these methods. Furthermore, the plurality of stem cells is not obtained by the prior destruction of human embryos.
Unless otherwise noted, basal medium was supplemented with […] human Activin A (Peprotech, #120-14). When indicated, basal medium was also supplemented with an effective amount of, e.g., a growth factor such as […] human Wnt3a (R&D, #5036-WN-010), an isoform-specific P13K inhibitor or an mTOR inhibitor. […]
To prepare the cells for flow cytometry, hESC-derived cells grown under endoderm differentiation conditions were dissociated using Accutase (Innovative Cell technologies, #AT-104). Briefly, the cells were washed once in PBS, incubated with Accutase for 10 minutes at room temperature, pelleted, and washed in cold PBS. The Accutase-dissociated hESC-derived cell samples were stained with anti-CXC4 antibody, anti-SOX17 antibody, or anti-FoxA2 antibody. Additional cell samples were stained with isotype control antibodies (e.g., IgG1 or IgG2).
The cells that were to be stained with anti-CXCR4 antibody were washed once with cold DPBS and then directly stained with mouse anti-human CD184 (CXCR4)-IgG2-PE (BD, #555974) for one hour at 4° C. The cells that were to be stained with anti-SOX17 antibody or anti-FoxA2 antibody were first fixed for 25 minutes at 4° C. in fixation buffer (BD, #554655) and permeabilized for 30 minutes on ice in Perm Buffer III (BD, #554656). Anti-SOX17 staining was performed using a mouse anti-SOX17 IgG1-PE antibody (BD, #561591) at room temperature for 30 minutes. Anti-FoxA2 staining was performed using a mouse anti-human FoxA2 IgG1 (BD, #561589) under the same conditions. A control sample of cells were fixed as described above and stained with either an anti-IgG1-PE antibody (BD, #554680) at room temperature for 30 minutes or an anti-IgG2-PE antibody (BD, #55574) for one hour at 4° C.
The antibody-stained hESC-derived cells were then analyzed via flow cytometry using a BD LSRFortessa™ cell analyzer. […] Approximately 1×10^6 cells were analyzed per sample.

[2] = test system: human embryonic stem cells (hESC); assay: AlphaLISA of SOX17 and OCT4 in hESC-derived cells; format: cell-based; settings: Activin A + 750 nM inhibitor, no Wnt3a, 3-day treatment
Description: To detect OCT4, the cells were washed three times in PBS and lysed with 50 ul AlphaLISA Lysis Buffer (Perkin Elmer, #AL003C). The lysis buffer was added to each cell sample and mixed with the cells five times. The cell samples were then incubated in a plate shaker at room temperature for 15 minutes. 5 μl of the lysate from each sample was then transferred to a 384 well OptiPlate (Perkin Elmer, #6005629). 5 μl of 10 ug/ml anti-rabbit acceptor bead (Perkin Elmer, #AL104M) and […] of 0.2 nM of rabbit anti-OCT4 antibody (Cell Signaling, #2890) was added to each well and incubated for 2 hours at room temperature. Following the incubation, 5 μl of 0.5 nM mouse anti-OCT4 antibody (BD, #611203) and […] of 0.5 nM biotinylated goat anti-mouse antibody (Invitrogen, #B2763) were added to each well and incubated at room temperature for 2 hours. Following the incubation, […] of streptavidin donor beads (Perkin Elmer, #6760002B) were added to each well and incubated for 30 minutes. The OptiPlates were then analyzed using an Envision Multilabel Plate Reader (Perkin Elmer, #2104-0010). All beads and antibodies were diluted as necessary in IAB Buffer (Perkin Elmer, #AL000C)+50 mM NaCl. Four replicate assays were performed.
To detect SOX17, the cells were washed three times in PBS and lysed with 50 ul Roche Complete Lysis Buffer (Roche, #04719956001). The lysis buffer was added to each cell sample and mixed with the cells five times. The cell samples were then incubated in a plate shaker at room temperature for 15 minutes. 5 μl of the lysate from each sample was then transferred to a 384 well OptiPlate (Perkin Elmer, #6005629). 5 μl of 10 ug/ml anti-rabbit acceptor bead (Perkin Elmer, #AL104M) and […] of 1 nM of rabbit anti-SOX17 antibody (Sigma, #AV33271) was added to each well and incubated for 2 hours at room temperature. Following the incubation, 5 μl of 0.5 nM mouse anti-SOX antibody (Sigma, #SAB3300093) and […] of 0.5 nM biotinylated goat anti-mouse antibody (Invitrogen, #B2763) were added to each well and incubated at room temperature for 2 hours. Following the incubation, […] of streptavidin donor beads (Perkin Elmer, #6760002B) were added to each well and incubated for 30 minutes. The OptiPlates were then analyzed using an Envision Multilabel Plate Reader (Perkin Elmer, #2104-0010). All beads and antibodies were diluted as necessary in IAB Buffer (Perkin Elmer, #AL000C) Four replicate assays were performed.
After a 3-day treatment, cells were harvested and stained with anti-SOX17 antibody as described above in preparation for AlphaLISA analysis.

mTOR = mTOR (Homo sapiens, UniProt P42345); assay: In vitro kinase profile, PI3K alpha_MTOR score; format: biochemical
Description: (§1) The effect of each compound on the PI3K/AKT/MTOR pathway was evaluated in two ways: via a kinase profile (FIG. 23) and via phospho imaging assays (i.e., immunofluorescence assays using antibodies specific for the phosphorylated form of mTOR or AKT). In vitro kinase profiling provided percent inhibition for numerous targets within the PI3K cell signaling pathway, and cell-based imaging assays were performed to directly visualize the effect of each compound on phosphorylated Akt and phosphorylated mTOR in the cell system used for differentiation.
(§2) In column 2 of Table 6, the PI3K alpha_MTOR score reflects the ability of a compound to inhibit the phosphorylation of PI3K alpha and mTOR, where + indicates minimal inhibition, and +++ indicates maximal inhibition. In column 3 of Table 6, the score indicates the ratio of phosphorylated mTOR (as measured by fluorescence intensity) in cells treated with a compound and the phosphorylated mTOR (as measured by fluorescence intensity) in cells that were not treated with the compound. In column 4 of Table 6, the score indicates the ratio of phosphorylated AKT (as measured by fluorescence intensity) in cells treated with a compound and the phosphorylated AKT (as measured by fluorescence intensity) in cells that were not treated with the compound. A reported effect of AKT inhibitors is an increase in phosphorylated AKT.

PI3K alpha = PI3K alpha (Homo sapiens, UniProt P42336); assay: In vitro kinase profile, PI3K alpha_MTOR score; format: biochemical
PI3K alpha, sequence (P42336 whole entry, species assumed): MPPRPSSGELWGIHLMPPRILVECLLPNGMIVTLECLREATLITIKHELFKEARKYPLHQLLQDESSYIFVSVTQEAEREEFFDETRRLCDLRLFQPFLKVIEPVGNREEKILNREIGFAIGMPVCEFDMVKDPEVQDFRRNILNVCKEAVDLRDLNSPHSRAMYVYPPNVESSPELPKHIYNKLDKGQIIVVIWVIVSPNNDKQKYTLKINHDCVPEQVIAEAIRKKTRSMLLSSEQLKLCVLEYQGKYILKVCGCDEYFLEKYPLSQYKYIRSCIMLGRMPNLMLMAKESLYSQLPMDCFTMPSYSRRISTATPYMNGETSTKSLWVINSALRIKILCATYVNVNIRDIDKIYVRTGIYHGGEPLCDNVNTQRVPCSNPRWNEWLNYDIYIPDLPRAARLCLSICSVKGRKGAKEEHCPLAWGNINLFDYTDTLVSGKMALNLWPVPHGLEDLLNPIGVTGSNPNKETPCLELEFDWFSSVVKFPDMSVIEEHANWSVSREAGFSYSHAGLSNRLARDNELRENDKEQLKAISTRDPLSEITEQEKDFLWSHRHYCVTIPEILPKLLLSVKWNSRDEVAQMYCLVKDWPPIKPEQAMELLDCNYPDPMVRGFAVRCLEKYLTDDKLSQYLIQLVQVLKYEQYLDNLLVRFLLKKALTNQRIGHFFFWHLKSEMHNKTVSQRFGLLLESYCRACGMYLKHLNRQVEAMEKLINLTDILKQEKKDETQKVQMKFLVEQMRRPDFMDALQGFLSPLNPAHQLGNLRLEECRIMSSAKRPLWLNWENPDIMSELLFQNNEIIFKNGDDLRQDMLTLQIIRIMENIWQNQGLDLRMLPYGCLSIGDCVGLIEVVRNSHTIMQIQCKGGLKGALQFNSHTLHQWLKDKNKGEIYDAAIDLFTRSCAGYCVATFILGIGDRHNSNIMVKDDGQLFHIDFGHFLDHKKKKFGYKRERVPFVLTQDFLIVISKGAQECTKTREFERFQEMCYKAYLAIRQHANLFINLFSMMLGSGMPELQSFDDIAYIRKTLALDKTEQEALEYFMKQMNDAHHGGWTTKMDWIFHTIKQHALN
PI3K alpha, sequence (P27986 whole entry partner, species assumed): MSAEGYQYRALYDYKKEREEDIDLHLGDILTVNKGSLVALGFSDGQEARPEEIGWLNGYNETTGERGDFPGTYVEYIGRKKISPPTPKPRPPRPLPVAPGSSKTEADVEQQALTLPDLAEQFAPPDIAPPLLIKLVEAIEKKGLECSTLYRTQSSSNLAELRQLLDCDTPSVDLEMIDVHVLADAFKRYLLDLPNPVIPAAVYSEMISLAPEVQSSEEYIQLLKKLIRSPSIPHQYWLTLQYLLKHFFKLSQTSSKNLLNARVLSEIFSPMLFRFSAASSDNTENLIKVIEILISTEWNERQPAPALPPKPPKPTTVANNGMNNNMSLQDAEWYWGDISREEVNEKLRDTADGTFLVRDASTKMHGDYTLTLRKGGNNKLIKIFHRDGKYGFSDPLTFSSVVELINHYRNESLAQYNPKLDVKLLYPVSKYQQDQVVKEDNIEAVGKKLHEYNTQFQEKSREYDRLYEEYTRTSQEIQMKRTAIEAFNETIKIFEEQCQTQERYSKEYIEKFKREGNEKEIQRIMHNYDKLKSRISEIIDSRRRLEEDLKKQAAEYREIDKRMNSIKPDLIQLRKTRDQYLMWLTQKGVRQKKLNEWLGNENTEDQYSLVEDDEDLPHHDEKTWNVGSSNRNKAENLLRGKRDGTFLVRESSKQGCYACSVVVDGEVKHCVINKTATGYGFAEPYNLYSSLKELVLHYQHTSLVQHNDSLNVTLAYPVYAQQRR
Description: as §1, §2

phosphorylated mTOR = assay: Phospho imaging assay (immunofluorescence); format: cell-based, human
Description: as §1, §2

phosphorylated AKT = assay: Phospho imaging assay (immunofluorescence); format: cell-based, human; settings: 60 min; treated versus untreated cells, fluorescence intensity
Description: as §1, §2

[3] = 60 min, treated versus untreated cells, fluorescence intensity

PI3K alpha_MTOR score: MTOR (mTOR)	PI3K alpha_MTOR score: PI3K alpha (PI3K alpha)	SMILES	Avg(Avg (Ph MTOR_60m_%C # Spots)) (phosphorylated mTOR; [3]) [%C]	Max(Avg (Ph AKT_60min_Intensity)) (phosphorylated AKT)	further results
PI3K alpha+_MTOR+	PI3K alpha+_MTOR+	CO[C@H]1C[C@@H]2CC[C@@H](C)[C@@](O)(O2)C(=O)C(=O)N2CCCC[C@H]2C(=O)O[C@H]([C@H](C)C[C@@H]2CC[C@@H](OCCO)[C@H](OC)C2)CC(=O)[C@H](C)/C=C(\C)[C@@H](O)[C@@H](OC)C(=O)[C@H](C)C[C@H](C)/C=C/C=C/C=C/1C [everolimus]	–	–	endoderm conversion (SOX17, FoxA2, CXCR4 flow cytometry) [1]: higher degree of endoderm conversion; endoderm conversion (SOX17 AlphaLISA) [2]: better endoderm conversion than cells cultured in Activin A alone or cells cultured with an Akt inhibitor; Avg(Avg (Ph MTOR_60m_%C # Spots)) (phosphorylated mTOR; 1 h): 36.46 %C
–	–	Cc1c(CN2CCN(C(=O)[C@H](C)O)CC2)sc2c(N3CCOCC3)nc(-c3cnc(N)nc3)nc12 [GDC0980]	9.99	–	–
–	–	Clc1ccc(C2(c3ccc(-c4cn[nH]c4)cc3)CCNCC2)cc1 [AT7867]	73.59	122.15	–
PI3K alpha+++_MTOR+++	PI3K alpha+++_MTOR+++	Nc1cc(C(F)(F)F)c(-c2cc(N3CCOCC3)nc(N3CCOCC3)n2)cn1 [NVPBKM120]	60.28	–	–
PI3K alpha+++_MTOR+++	PI3K alpha+++_MTOR+++	Oc1cccc(-c2nc(N3CCOCC3)c3oc4ncccc4c3n2)c1 [PI103]	5.59	–	–
–	–	Cn1c(=O)n(-c2ccc(C(C)(C)C#N)cc2)c2c3cc(-c4cnc5ccccc5c4)ccc3ncc21 [NVPBEZ235]	43.44	88.3	–
+++	–	COc1ccc(-c2ccc3c(N4CCOC[C@@H]4C)nc(N4CCOC[C@@H]4C)nc3n2)cc1CO [AZD 8055]	15.8	–	–
+++	–	COC(=O)Nc1ccc(-c2nc(N3CCOCC3)c3cnn(C4CCN(C(=O)OC)CC4)c3n2)cc1 [WYE - 354]	10.49	89.35	endoderm conversion (SOX17, FoxA2, CXCR4 flow cytometry) [1]: higher degree of endoderm conversion; endoderm conversion (SOX17 AlphaLISA) [2]: better endoderm conversion than cells cultured in Activin A alone or cells cultured with an Akt inhibitor
–	–	CCn1c(-c2nonc2N)nc2c(C#CC(C)(C)O)ncc(OC[C@H]3CCCNC3)c21 [GSK690693]	–	–	endoderm conversion (SOX17, FoxA2, CXCR4 flow cytometry) [1]: higher degree of endoderm conversion
+++	–	CNC(=O)Nc1ccc(-c2nc(N3CC4CCC(C3)O4)c3cnn(C4CCC5(CC4)OCCO5)c3n2)cc1 [WYE-125132]	17.55	–	–
–	–	COC[C@H]1OC(=O)c2coc3c2[C@@]1(C)C1=C(C3=O)[C@@H]2CCC(=O)[C@@]2(C)C[C@H]1OC(C)=O [Wortmannin]	10.47	–	–
–	–	CO[C@H]1C[C@@H]2CC[C@@H](C)[C@@](O)(O2)C(=O)C(=O)N2CCCC[C@H]2C(=O)O[C@H]([C@H](C)C[C@@H]2CC[C@@H](O)[C@H](OC)C2)CC(=O)[C@H](C)/C=C(\C)[C@@H](O)[C@@H](OC)C(=O)[C@H](C)C[C@H](C)/C=C/C=C/C=C/1C [Rapamycin]	57.77	–	–
+++	–	CN(C)C1CCN(C(=O)c2ccc(NC(=O)Nc3ccc(-c4nc(N5CCOCC5)nc(N5CCOCC5)n4)cc3)cc2)CC1 [PKI 587]	77.99	–	–
–	–	CCC(=O)N1CCN(c2ccc(-n3c(=O)ccc4cnc5ccc(-c6cnc7ccccc7c6)cc5c43)cc2C(F)(F)F)CC1 [Torin1]	66.6	89.48	–
–	+++	COc1ccc2c(c1OC)N=C(NC(=O)c1cccnc1)N1CCN=C21 [PIK90]	42.17	86.72	–
PI3K alpha+++_MTOR+++	PI3K alpha+++_MTOR+++	COc1ncc(-c2ccc3nccc(-c4ccnnc4)c3c2)cc1NS(=O)(=O)c1ccc(F)cc1F [GSK2126458]	15.55	–	–
–	–	CO[C@H]1C[C@@H]2CC[C@@H](C)[C@@](O)(O2)C(=O)C(=O)N2CCCC[C@H]2C(=O)O[C@H]([C@H](C)C[C@@H]2CC[C@@H](OC(=O)C(C)(CO)CO)[C@H](OC)C2)CC(=O)[C@H](C)/C=C(\C)[C@@H](O)[C@@H](OC)C(=O)[C@H](C)C[C@H](C)/C=C/C=C/C=C/1C [Temsirolimus]	42.12	–	–

SMILES	PI3K alpha_MTOR score: MTOR (mTOR)	PI3K alpha_MTOR score: PI3K alpha (PI3K alpha)	Avg(Avg (Ph MTOR_60m_%C # Spots)) (phosphorylated mTOR; [3]) [%C]	Max(Avg (Ph AKT_60min_Intensity)) (phosphorylated AKT)	further results
COC(=O)Nc1ccc(-c2nc(N3CCOCC3)c3cnn(C4CCN(Cc5cccnc5)CC4)c3n2)cc1 [WYE-687]	+++	+	12.81	86.65	–
